Reference: patent US20250282776A1, “Bicyclic TLR7 Agonists and Uses Thereof” (Bristol-Myers Squibb Company, priority 2024, published 2025)
Blank lines part the entries; values can stand above or below the compound they belong to.

Tests used:
[1] = biological target: T1, human TLR7 (hTLR7) (Homo sapiens, UniProt Q9NYK1); assay: Human TLR7 agonist activity assay (HEK-Blue TLR7 SEAP reporter); type: cell-based; settings: HEK-Blue TLR7 cells, 18 h incubation, Quanti-Blue, OD 620 nm, some values average of multiple measurements
T1 construct: host or cells: HEK-Blue TLR7 cells (engineered human embryonic kidney cells)
T1 sequence (Q9NYK1 27-1049): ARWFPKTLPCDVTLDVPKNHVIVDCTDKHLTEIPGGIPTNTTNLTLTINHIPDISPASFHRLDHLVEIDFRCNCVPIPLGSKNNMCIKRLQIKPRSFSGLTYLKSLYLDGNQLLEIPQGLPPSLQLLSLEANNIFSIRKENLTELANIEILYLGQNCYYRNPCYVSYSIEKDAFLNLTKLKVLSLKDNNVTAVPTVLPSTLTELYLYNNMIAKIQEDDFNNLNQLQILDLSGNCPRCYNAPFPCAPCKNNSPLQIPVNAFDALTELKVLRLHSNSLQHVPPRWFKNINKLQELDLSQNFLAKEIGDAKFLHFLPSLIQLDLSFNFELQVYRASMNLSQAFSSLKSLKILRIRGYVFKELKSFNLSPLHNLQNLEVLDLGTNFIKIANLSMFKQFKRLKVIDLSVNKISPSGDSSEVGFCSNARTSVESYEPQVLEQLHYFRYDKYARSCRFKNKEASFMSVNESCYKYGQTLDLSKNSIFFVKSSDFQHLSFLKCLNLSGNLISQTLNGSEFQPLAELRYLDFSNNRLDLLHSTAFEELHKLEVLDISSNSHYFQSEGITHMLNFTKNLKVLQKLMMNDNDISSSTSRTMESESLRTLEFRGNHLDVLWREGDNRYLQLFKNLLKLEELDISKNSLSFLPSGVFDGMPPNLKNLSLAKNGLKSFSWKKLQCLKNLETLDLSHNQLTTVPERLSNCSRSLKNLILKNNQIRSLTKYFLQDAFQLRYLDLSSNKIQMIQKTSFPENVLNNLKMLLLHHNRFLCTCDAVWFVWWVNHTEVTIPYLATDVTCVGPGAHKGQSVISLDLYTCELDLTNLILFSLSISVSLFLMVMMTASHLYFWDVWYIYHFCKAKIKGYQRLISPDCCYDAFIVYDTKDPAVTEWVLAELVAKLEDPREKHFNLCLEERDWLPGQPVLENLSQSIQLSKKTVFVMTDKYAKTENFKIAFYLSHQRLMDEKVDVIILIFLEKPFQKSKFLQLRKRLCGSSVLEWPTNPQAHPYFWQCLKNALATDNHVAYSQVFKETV
In short: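 HEK-Blue TLR7 cells seeded 16-18 h, then exposed to compound for 18 h at 37 °C, 5% CO2. Secreted SEAP read with Quanti-Blue at OD 620 nm after 30 min. EC50 taken as concentration giving half-maximal response between baseline and maximum; some values averaged over repeats.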

[2] = biological target: T2, human TLR8 (hTLR8) (Homo sapiens, UniProt Q9NR97); assay: Human TLR8 agonist activity assay (measured in a similar manner); type: cell-based; settings: HEK-Blue TLR cells, SEAP reporter, measured in a similar manner to TLR7; some values average of multiple measurements
T2 construct: expressed in transfected cells
T2 sequence (Q9NR97 27-1041): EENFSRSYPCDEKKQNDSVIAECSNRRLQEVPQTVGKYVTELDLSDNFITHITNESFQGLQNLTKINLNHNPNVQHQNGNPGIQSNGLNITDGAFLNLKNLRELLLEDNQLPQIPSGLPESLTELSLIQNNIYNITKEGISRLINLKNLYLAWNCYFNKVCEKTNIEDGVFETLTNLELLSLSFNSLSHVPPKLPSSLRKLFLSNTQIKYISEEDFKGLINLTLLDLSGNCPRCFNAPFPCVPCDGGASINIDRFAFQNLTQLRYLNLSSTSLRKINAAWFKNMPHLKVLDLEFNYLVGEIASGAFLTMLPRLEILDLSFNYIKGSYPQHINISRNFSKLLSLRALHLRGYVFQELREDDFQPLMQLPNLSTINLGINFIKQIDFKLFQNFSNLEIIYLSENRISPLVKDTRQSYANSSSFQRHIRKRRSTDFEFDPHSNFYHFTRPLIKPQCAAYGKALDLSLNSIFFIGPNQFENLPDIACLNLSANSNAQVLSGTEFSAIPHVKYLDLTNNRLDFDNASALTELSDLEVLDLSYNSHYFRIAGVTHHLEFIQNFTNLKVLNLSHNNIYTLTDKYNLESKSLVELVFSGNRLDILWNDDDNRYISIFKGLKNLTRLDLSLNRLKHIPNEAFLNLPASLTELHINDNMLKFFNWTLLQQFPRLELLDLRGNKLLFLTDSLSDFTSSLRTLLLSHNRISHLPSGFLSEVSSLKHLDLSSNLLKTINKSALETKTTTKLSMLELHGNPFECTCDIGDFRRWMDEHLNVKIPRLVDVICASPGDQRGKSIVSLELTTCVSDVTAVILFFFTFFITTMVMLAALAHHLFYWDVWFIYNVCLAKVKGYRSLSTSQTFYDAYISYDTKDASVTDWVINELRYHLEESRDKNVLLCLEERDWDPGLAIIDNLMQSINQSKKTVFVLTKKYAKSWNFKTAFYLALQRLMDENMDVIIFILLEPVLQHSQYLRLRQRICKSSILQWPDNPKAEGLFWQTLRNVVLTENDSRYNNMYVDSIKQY
In short: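 Compounds were added to HEK-Blue TLR8 reporter cells, pre-incubated 16-18 h, then treated 18 h at 37° C, 5% CO2. SEAP output was measured with Quanti-Blue (30 min) at OD 620 nm. Some values are averages of multiple measurements.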

Structure (SMILES): CCCCN(CCO)c1nc(N)nc2cn(Cc3c(F)cc(CNCC(C)(C)O)cc3OC)nc12 [Compound 81]
EC50 [1]: 1000 nM
EC50 [2]: 1430 nM

Structure (SMILES): CCCCN(CCO)c1nc(N)nc2cn(Cc3ccc(CNC4CCOC(C)C4)cc3OC)nc12 (centres unmarked) [Compound 125]
EC50 [1]: 2250 nM
EC50 [2]: 2030 nM

Structure (SMILES): CCCCN(CCO)c1nc(N)nc2cn(Cc3c(F)cc(CN[C@@H]4COC[C@@H]4O)cc3OC)nc12 [Compound 95]
EC50 [1]: 1240 nM
EC50 [2]: 2500 nM

Structure (SMILES): CCCCN(CCO)c1nc(N)nc2cn(Cc3c(F)cc(CN[C@H]4C[C@H](O)C4)cc3F)nc12 [Compound 117]
EC50 [1]: 1190 nM
EC50 [2]: 1970 nM

Structure (SMILES): CCCCN(CCO)c1nc(N)nc2cn(Cc3c(F)cc(CN[C@H]4C[C@H](O)C4)cc3OC)nc12 [Compound 94]
EC50 [1]: 1500 nM
EC50 [2]: 2660 nM

Structure (SMILES): CCCCN(CCO)c1nc(N)nc2cn(Cc3ccc(CNC4CCN(CCOC)CC4)c4cccnc34)nc12 [Compound 66]
EC50 [1]: 1590 nM
EC50 [2]: 2130 nM

Structure (SMILES): CCCCN(CCO)c1nc(N)nc2cn(Cc3ccc(CN[C@H]4C[C@H](OC)C4)c4c3OCCC4)nc12 [Compound 138]
EC50 [1]: 1410 nM
EC50 [2]: 608 nM

Structure (SMILES): CCCCN(CCO)c1nc(N)nc2cn(Cc3ccc(CN4CC5(C4)CN(C(C)C)C5)cc3OC)nc12 [Compound 30]
EC50 [1]: 1410 nM
EC50 [2]: 1620 nM

Structure (SMILES): CCCCN(CCO)c1nc(N)nc2cn(Cc3ccc(CNC(C)(C)CO)cc3OC)nc12 [Compound 32]
EC50 [1]: 2500 nM
EC50 [2]: 1200 nM

Structure (SMILES): CCCCN(CCO)c1nc(N)nc2cn(Cc3ccc(CCNC4CCOCC4)cc3OC)nc12 [Compound 156]
EC50 [1]: 1550 nM
EC50 [2]: 2170 nM

Structure (SMILES): CCCCN(CCO)c1nc(N)nc2cn(Cc3ccc(CNC4CCOCC4)cc3C(F)F)nc12 [Compound 100]
EC50 [1]: 1760 nM
EC50 [2]: 1420 nM

Structure (SMILES): CCCCN(CCO)c1nc(N)nc2cn(Cc3c(F)cc(C4=CCNC4)cc3OC)nc12 [Compound 147]
EC50 [1]: 1810 nM
EC50 [2]: 2020 nM

Structure (SMILES): CCCCN(CCO)c1nc(N)nc2cn(Cc3ccc(CNC4CCOC(C)C4)cc3OC)nc12 (single isomer, unassigned) [Compound 121]
EC50 [1]: 1360 nM
EC50 [2]: 564 nM

The remaining compounds from weak to strong by EC50 [1], led by results:

EC50 [1]: 993 nM
EC50 [2]: 674 nM
Structure (SMILES): CCCCN(CCO)c1nc(N)nc2cn(Cc3ccc(CNC4CCC4)c4oc(C)nc34)nc12 [Compound 140, 2-((5-Amino-2-((7-((cyclobutylamino)methyl)-2-methylbenzo[d]oxazol-4-yl)methyl)-2H-pyrazolo-[4,3-d]pyrimidin-7-yl) (butyl)amino) ethan-1-ol]

EC50 [1]: 828 nM
EC50 [2]: 1140 nM
Structure (SMILES): CCCCN(CCO)c1nc(N)nc2cn(Cc3ccc(CNC4COC4)cc3OC)nc12 [Compound 26]

EC50 [1]: 741 nM
EC50 [2]: 1280 nM
Structure (SMILES): CCCCN(CCO)c1nc(N)nc2cn(Cc3c(F)cc(CNC4CCOCC4)cc3OC)nc12 [Compound 74]

EC50 [1]: 621 nM
EC50 [2]: 1880 nM
Structure (SMILES): CCCCN(CCOC)c1nc(N)nc2cn(Cc3ccc(CN[C@@H]4CCOC4)cc3OC)nc12 [Compound 71]

EC50 [1]: 614 nM
EC50 [2]: 547 nM
Structure (SMILES): CCCCN(CCO)c1nc(N)nc2cn(Cc3ccc(CN[C@H]4C[C@H]5COC[C@H]54)cc3OC)nc12 [Compound 22]

EC50 [1]: 614 nM
EC50 [2]: 725 nM
Structure (SMILES): CCCCN(CCO)c1nc(N)nc2cn(Cc3ccc(CNC4CCCOC4)c4scnc34)nc12 (centres unmarked) [Compound 202]

EC50 [1]: 587 nM
EC50 [2]: 1100 nM
Structure (SMILES): CCCCN(CCO)c1nc(N)nc2cn(Cc3ccc(CN[C@H]4CCCN(C)C4)c4cccnc34)nc12 [Compound 168]

EC50 [1]: 563 nM
EC50 [2]: 1680 nM
Structure (SMILES): CCCCN(CCO)c1nc(N)nc2cn(Cc3c(F)cc(C4=CCC(NC5CCOCC5)CC4)cc3OC)nc12 (centres unmarked) [Compound 190]

EC50 [1]: 548 nM
EC50 [2]: 524 nM
Structure (SMILES): CCCCN(CCO)c1nc(N)nc2cn(Cc3ccc(CNC(C)(C)COC)cc3OC)nc12 [Compound 33]

EC50 [1]: 541 nM
EC50 [2]: 1750 nM
Structure (SMILES): CCCCN(CCO)c1nc(N)nc2cn(Cc3c(F)cc(C4CCC(N(C)C5CC6(COC6)C5)CC4)cc3OC)nc12 (centres unmarked) [Compound 195]

EC50 [1]: 511 nM
EC50 [2]: 2260 nM
Structure (SMILES): CCCCN(CCO)c1nc(N)nc2cn(Cc3c(F)cc(CN4CC5(COC5)C4)cc3OC)nc12 [Compound 83]

EC50 [1]: 439 nM
EC50 [2]: 421 nM
Structure (SMILES): CCCCN(CCO)c1nc(N)nc2cn(Cc3ccc(CN[C@H]4C[C@H](OC)C4)c4oc(C)nc34)nc12 [Compound 141, 2-((5-amino-2-((7-((((1r,3r)-3-methoxycyclobutyl)amino)methyl)-2-methylbenzo[d]oxazol-4-yl)methyl)-2H-pyrazolo[4,3-d]pyrimidin-7-yl)(butyl)amino)ethan-1-ol]

EC50 [1]: 422 nM
EC50 [2]: 1130 nM
Structure (SMILES): CCCCN(CCO)c1nc(N)nc2cn(Cc3c(F)cc(C4=CC[C@@H](NC5CC6(COC6)C5)CC4)cc3OC)nc12 [Compound 194]

EC50 [1]: 349 nM
EC50 [2]: 1320 nM
Structure (SMILES): CCCCN(c1nc(N)nc2cn(Cc3ccc(CN[C@@H]4CCOC4)cc3OC)nc12)C(C)CO (some centres unmarked) [Compound 68]

EC50 [1]: 320 nM
EC50 [2]: 593 nM
Structure (SMILES): CCCCN(CCO)c1nc(N)nc2cn(Cc3c(F)cc(CNCCOC)cc3OC)nc12 [Compound 73]

EC50 [1]: 301 nM
EC50 [2]: 879 nM
Structure (SMILES): CCCCN(CCO)c1nc(N)nc2cn(Cc3ccc(CN[C@@H]4CCCN(S(C)(=O)=O)C4)c4cccnc34)nc12 [Compound 200, (R)-2-((5-Amino-2-((5-(((1-(methylsulfonyl)piperidin-3-yl)amino)methyl)quinolin-8-yl)methyl)-2H-pyrazolo[4,3-d]pyrimidin-7-yl)(butyl)amino) ethan-1-ol]

EC50 [1]: 136 nM
EC50 [2]: 1960 nM
Structure (SMILES): CCCCN(CCO)c1nc(N)nc2cn(Cc3c(F)cc(CN[C@H]4C[C@H](OC)C4)cc3F)nc12 [Compound 119]

EC50 [1]: 108 nM
EC50 [2]: 1500 nM
Structure (SMILES): CCCCN(CCO)c1nc(N)nc2cn(Cc3c(F)cc(CNC4CCOCC4)cc3F)nc12 [Compound 115]
